Measurements reported in patent publication US12171821B2, “Toxoplasma gondii vaccine” (priority 2018, dated 2024).
Values joined by “and” are separate entries in the source; they are usually repeats but may differ in a detail not shown here. Equal values may be shown once. “Also recorded” adds a separate entry of the source.

Legend:
[1] = test system: T. gondii ME49 bradyzoites; test: Gametes and intracellular oocyst walls (AO2, 3G4, PCR) in infected cat intestinal monolayers; assay type: cell-based, Toxoplasma gondii
Description: FIGS. 7A-H. Identification of gametes and intracellular oocysts in cat tissue culture. Cat intestinal organoids were disassociated by trypsin then grown as monolayers on glass slides. […] After 7 days, monolayers were incubated with mouse anti-AO2 (panels A-C) or mouse monoclonal IgM 3G4 (panels E-G), The amiloride-sensitive amine oxidase, copper-containing protein 2 (AO2) is an enzyme exclusively expressed in macrogametes and early oocysts and has a possible role in oocyst wall biogenesis. […] 3G4 is a mouse monoclonal antibody produced by immunizing mice with purified oocyst walls, thus it is a marker of oocyst wall biogenesis. Only monolayers supplemented with linoleic acid (G) had positive 3G4 vacuoles. All panels are 20 μm square with a 5 μm white size bar in the lower right corner. D) Markers for macrogamete and microgamete expression were also evaluated by PCR. Cat intestinal monolayers were grown in 24-well plates until confluency and then infected with T. gondii bradyzoites in duplicate using the same conditions as above. 7 days post-infection, RNA was extracted with TRIzol and cDNA was synthesized using an oligo (dT) primer to only amplify mRNA. AO2 was again used as a marker for macrogametes and the expected PCR product is 218 bp. To assess microgamete presence, we selected the gene TgME49_306338, which is overexpressed in the gametes stage, corresponded to day 7 post-infection in cats and has 44% identity to a protein expressed in the flagella of the motile green algae Chlamydomonas reinhardtii. The expected PCR product for TgME49_306338 is 160 bp. TUB1A was used as an input control and results in a 172 bp product. NO RT corresponds to a cDNA synthesis reaction without the addition of reverse transcriptase (RI) as a control for genomic DNA contamination. Equivalent amounts of cDNA per sample were used as a template for each PCR reaction, and the products were separated on an acrylamide gel. […] H) The number of positive oocyst walls stained with 3G4 were quantified. […] The number of positive oocyst walls were counted in each slide and divided by the area of slide in cm^2.
Immunofluorescence. Intestinal organoid monolayers or mouse fecal samples were fixed in 3.7% formaldehyde in PBS for 20 minutes, permeabilized with 0.2% triton X-100 (Sigma) in PBS at room temperature for one hour and then blocked with 3% BSA in PBS at room temperature for one hour. Primary antibody was incubated at 4° C. overnight in 0.2% v/v Triton x-100 and 3% BSA in PBS (1:100 mouse anti-GRA11B, 1:100 rabbit anti-BRP1, 1:100 mouse anti-AO2, 1:50 monoclonal mouse anti-ZO1 (Santa Cruz) or 1:25 mouse 288 IgM anti-oocyst wall 3G4. Sporulated oocysts from mouse feces were dried onto slides, fixed and permeabilized with ice cold acetone for 30 minutes and incubated with 1:20 mouse 4B6 to the visualize the sporocyst. Slides were incubated one hour with the specific secondary antibody (1:500 goat anti-rabbit Alexa Fluor 488 and 1:500 goat anti-mouse Alexa Fluor 594) at room temperature for one hour and then washed 3 times with PBS. Cells nuclei were stained with 10 μM DAPI (Sigma). Slides were mounted in Vectashield antifade mounting medium (VectorLabs). Samples were imaged on Zeiss Axioplan III equipped with a triple-pass (DAPI/fluorescein isothiocyanate [FITC]/Texas Red) emission cube, differential interference contrast optics, and a monochromatic Axiocam camera operated by Zen software (Zeiss) and processed using ImageJ (Fiji packet).
PCR of cat intestinal monolayers. […]

[2] = test system: T. gondii ME49 bradyzoites; test: Real-time PCR on ileum cDNA of infected Z-DNA binding protein knock out mice; assay type: in vivo, Toxoplasma gondii; conditions: homogenized mouse ileum cDNA
Description: Delta-6-desaturase inhibition. SC 26196 (Cayman) was solubilized in DMSO and used at 20 μM in mouse organoid monolayers. For in vivo treatment, the inhibitor was solubilized in 0.5% m/v methylcellulose and the mice were given 50 mg/kg every 12 hours by oral gavage (He et al., 2012). 4-week old C57BL/6J female mice deleted in Z-DNA-binding protein (Pittman et al., 2016) were divided into four different groups: uninfected control, T. gondii-infected without fatty acid supplementation, T. gondii infected with linoleic acid supplementation, and T. gondii-infected with linoleic acid and SC 26196 inhibitor. Each mouse supplemented with linoleic acid received 10 μL of 99% linoleic acid oil (MilliporaSigma Cat #843483) suspended in 0.5% Methylcellulose per day by oral gavage. Mice were infected with 1000 brain cysts purified as described above by oral gavage and euthanized 7 days post infection. Sample size was at least 2 mice per group and the experiment was repeated 5 times. Alternatively, each mouse was infected with one mouse brain at least 2 months postinfection with at least 1000 cysts. Mice were treated with SC 26196 until day 5 postinfection. Feces were collected from days 5-14 and oocysts enumerated by microscopy.
Real-time PCR on ileum cDNA. Z-DNA binding protein deletion mice ice with and without delta-6-desaturase inhibitor treatment were euthanized 7 days post infection. The ileum of each mouse was removed and homogenized in 1 mL of TRIzol. Total RNA was isolated according to manufacturer's protocol (Invitrogen) and treated with amplification grade Dnase I. cDNA was generated using the Invitrogen SuperScript III First-Strand Synthesis kit with random hexamer primers. GRA11B and SAG1 were used as markers of sexual and asexual stages, respectively. The T. gondii housekeeping gene TUB1A was used to normalize target gene expression. Real-time quantitative PCR was performed using Bio-Rad iTaq Universal SYBR Green Supermix on 311 an Applied Biosystems StepOnePlus Real-Time PCR system. The efficiency of each primer set was calculated from the slope of a 1:10 dilution standard curve of tachyzoite gDNA, where E=10^(−1/slope). The Pfaffl method (Pfaffl, 2001), which accounts for differences in efficiencies, was then used to calculate the relative gene expression of GRA11B and SAG1 per sample, in triplicate. Only wells with one melt curve temperature were used, indicating a single product. Primer sequences were as follows:
Statistical methods. All real-time PCR fecal samples were run in triplicate technical replicates. The difference between the mean target gene copy numbers was analyzed by two-tailed unpaired t tests. The real-time PCR intestinal samples were run in triplicate from two biological replicates per group. The difference between the mean relative expression of each target gene was analyzed by two-tailed unpaired t tests.

[3] = 7 days post infection, Mouse 1 and Mouse 2, wells 1-3

Structure (SMILES): CCCCC/C=C\C/C=C\CCCCCCCC(=O)O [linoleic acid]
- oocyst wall production ([1]; cat cells, 20 μM linoleic acid): did not enhance oocyst wall production
- macrogamete protein AO2 by immunofluorescence ([1]; cat intestinal monolayers, 200 μM fatty acid, 7 days of infection): round structures were seen with reactivity to the macrogamete protein AO210; also recorded: only detected by immunofluorescence in the monolayers supplemented with linoleic acid
- AO2 and TgME49_306338 expression by PCR (bands with the correct size) ([1]; cat intestinal monolayers, 200 μM, 7 days post-infection): only observed in linoleic acid supplemented monolayers
- number of positive oocyst walls stained with 3G4 ([1]; cultured cat cells, 200 μM fatty acid, 7 days of infection): approximately 9 oocyst walls per cm^2
- GRA11B raw Ct values [2, 3]: 33.43 and 36.02 and 35.59 and 38.24 and 39.05
- SAG1 raw Ct values [2, 3]: 32.63 and 31.52 and 32.31 and 31.46 and 32.97 and 31.72
- GRA11B Ct mean ([2]; Mouse 1 and Mouse 2): 37.13 and 36.02
- SAG1 Ct mean ([2]; Mouse 1 and Mouse 2): 32.63 and 31.57
